Experiment: method code SF, from Hansch, C. & Leo, A. (1987). Log P database [Dataset]. Pomona College Medicinal Chemistry Project.
Conditions: not given

Row | Structure (SMILES) | logP
1 | Nc1cc(=O)[nH]cn1 | -0.99
2 | C1=Cc2ccccc2C1 | 2.92
3 | CO[C@@H]1O[C@H](COC(C)=O)[C@@H](OC(C)=O)[C@H](NC(=O)N(CCCl)N=O)[C@H]1OC(C)=O | 0.67
4 | N=C(N)NS(=O)(=O)c1ccc(N)cc1 | -1.22
5 | CNC(=O)Oc1cc(Cl)ccc1Cl | 2.44
6 | Nc1ncnc2c1ncn2[C@@H]1O[C@H](CO)[C@@H](O)[C@@H]1O | -1.11
7 | C[C@]12CCC(=O)C=C1CC[C@@H]1[C@@H]2[C@@H](O)C[C@@]2(C)[C@H]1CC[C@]2(O)C(=O)CO | 1.61
8 | O=[N+]([O-])c1ccc(/C=C/c2cccc(CO)n2)o1 | 1.37
9 | O=C1C=CC(=NBr)C=C1 | 1.12
10 | COc1ccccc1N | 1.18
11 | CC1CCC(O)CC1 (centres undefined) | 1.79
12 | ClCCCCl | 2
13 | FC(F)(F)C(F)(F)c1ccccc1 | 3.36
14 | Fc1c(F)c(F)c(F)c(F)c1F | 2.22
15 | O=CC=Cc1ccco1 | 1.15
16 | CCOP(=S)(OCC)Oc1ccc(SC)cc1C | 4.16
17 | Cc1nnc(SCc2ccccc2)s1 | 2.35
18 | CN(C)CCCN1c2ccccc2Sc2ccc(S(C)(=O)=O)cc21 | 3.5
19 | CC(C)C(=O)Nc1ccc(Cl)c(Cl)c1 | 3.72
20 | O=c1[nH]cc(CO)c(=O)[nH]1 | -1.94
21 | CC(=O)Nc1ccc2c(c1)[nH]c1ccccc12 | 3.02
22 | ClC(Cl)(Cl)c1ccc(C(Cl)(Cl)Cl)cc1 | 4.62
23 | COC(=O)NS(=O)(=O)c1ccc(N)cc1 | -0.27
24 | c1cocn1 | 0.12

Results, then the compound that gave them:

Row | logP | Structure (SMILES)
25 | 1.25 | CCc1ccc2c(c1)N=C(C)NS2(=O)=O
26 | 0.1 | NC(=O)C(=Cc1cccc(F)c1)C(N)=O
27 | 1.42 | C[C@@H](O)c1ccccc1
28 | 1.4 | NC(=O)/C=C/c1ccc2c(c1)OCO2
29 | 1.35 | CN(C)S(=O)(=O)c1ccccc1
30 | 2.57 | Cc1ccc2ncccc2c1
31 | 3.1 | CCOC(=O)C(=Cc1ccc(F)cc1)C(=O)OCC
32 | 1.49 | NC(=S)c1ccccc1
33 | 2.33 | CCOC(=O)c1cccs1
34 | 1.18 | CC(=O)OCC(F)(F)F
35 | 2.26 | CC(=O)C(=Cc1cccc(Cl)c1)C(C)=O
36 | 2.26 | CCSCC1=Nc2cc(Cl)ccc2S(=O)(=O)N1
37 | 0.91 | CCC1(c2ccccc2)C(=O)NCNC1=O
38 | 2.89 | CCOC(=O)C(=Cc1ccc(O)c(OC)c1)C(=O)OCC
39 | -0.23 | Cn1ccccc1=O
40 | 2.76 | CCOC(=O)C(Cc1ccccc1)C(=O)OCC
41 | 0.62 | CN(C)C(=O)CCc1ccco1
42 | 0.34 | CCOC(=O)NC
43 | 3.11 | CON(C)C(=O)Nc1cccc(OCc2ccccc2)c1
44 | -0.13 | NC(=O)C(=Cc1ccccc1)C(N)=O
45 | 3.9 | CCC(C)NC(=O)C=C(Br)c1ccc(Cl)cc1 (centres undefined)
46 | 1.51 | CC1=Nc2ccc(C(F)(F)F)cc2S(=O)(=O)N1
47 | 4.07 | CCCCC(=Cc1ccccc1)C(=O)NC(C)CC (centres undefined)
48 | 1.02 | Cc1ccc(N)nc1
49 | -0.48 | NC(=O)c1ccc(C(O)C(CO)NC(=O)C(Cl)Cl)cc1 (centres undefined)
50 | 2.34 | O=C(C=Cc1ccco1)c1ccco1
51 | 2.96 | O=C1c2ccccc2C(=O)N1CCCCBr

Same assay, conditions: pH 1.0

Row | logD | Structure (SMILES)
52 | -0.93 | N#Cc1c[nH]c(=O)[nH]c1=O
53 | 2.53 | CCc1ccccc1OCC(=O)O

Same assay, conditions: pH 3.0

Row | Structure (SMILES) | logD
54 | Cn1c(SCC2=C(C(=O)O)N3C(=O)C(NC(=O)Cc4cccs4)C3SC2)nnc(O)c1=O (centres undefined) | -0.52
55 | CC1=C(C(=O)O)N2C(=O)[C@@H](NC(=O)Cc3cccs3)[C@H]2SC1 | 0.61

Same assay, conditions: pH 7.0

Row | logD | Structure (SMILES)
56 | 1.56 | O=Cc1ccc([N+](=O)[O-])cc1

Same assay, conditions: pH 7.4

Row | logD | Structure (SMILES)
57 | 1.73 | CN(C)/N=N/c1ccccc1C(N)=O
58 | 0.33 | C#CCN(C)/N=N/c1nc[nH]c1C(N)=O

Same assay, conditions: pH 8.0

Row | logD | Structure (SMILES)
59 | 1.88 | O=C(c1ccccc1)c1cccnc1

Same assay, conditions: pH 8.7

Row | logD | Structure (SMILES)
60 | 3.87 | CN1CCC(CN2c3ccccc3Sc3ccccc32)C1 (centres undefined)

Same assay, conditions: pH 11.0

Row | Structure (SMILES) | logD
61 | CCNCc1cccnc1 | 0.76
62 | CN1CCCC[C@H]1c1cccnc1 | 0.96

Same assay, conditions: pH 13.0

Row | logD | Structure (SMILES)
63 | 2.59 | C=CCN(CC=C)CC=C
64 | 0.4 | COc1ccc(N2C(N)=NC(N)=NC2(C)C)cc1
